The text below walks through data of patent US20130303509A1, “NAMPT INHIBITORS” (AbbVie Inc., priority 2012, published 2013).

Structures are written as SMILES.

For this assay, the system named is PC3 cells. As to the kind of experiment: NAMPT Cell Proliferation Assay. It is filed as cell-based. Conditions: Homo sapiens, PC-3, 120 h, 5 days incubation, cell viability by Cell Titer Glo. The essentials: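 Seeded at 500 cells/well in RPMI with 10% heat-inactivated FBS and left to attach overnight at 37° C, 5% CO2. Compounds were added as 10-fold dilutions […] for 5 days, then viability was read by CellTiter-Glo. IC50s came from sigmoidal fits of percent inhibition.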
As usually defined, the IC50 is the concentration that inhibits the measured activity by half. Low values mean greater potency, high ones weaker potency. For the compound `O=C(Nc1ccc(OC2CCN(C(=O)c3cccc(F)c3)CC2)cc1)C1CN(c2ccnnc2)C1` [Example 286, N-(4-{[1-(3-fluorobenzoyl)piperidin-4-yl]oxy}phenyl)-1-(pyridazin-4-yl)azetidine-3-carboxamide], 74 nM corresponded to half-maximal inhibition (IC50).

Regarding `O=C(Nc1ccc(C2CCN(C(=O)C3CC3)CC2)cc1F)C1CN(c2cccnn2)C1` [Example 860, N-{4-[1-(cyclopropylcarbonyl)piperidin-4-yl]-2-fluorophenyl}-1-(pyridazin-3-yl)azetidine-3-carboxamide], the half-maximal inhibitory concentration (IC50) is 10 nM.

In turn, `O=C(Nc1ccc(O[C@@H]2CCN(C(=O)c3cccc(F)c3)C2)cc1)C1CN(c2ccnnc2)C1` [Example 476, N-(4-{[(3R)-1-(3-fluorobenzoyl)pyrrolidin-3-yl]oxy}phenyl)-1-(pyridazin-4-yl)azetidine-3-carboxamide] registered an IC50 of 17.4 nM.

Consider `O=C(Nc1ccc(O[C@@H]2CCN(C(=O)c3cscn3)C2)cc1)C1CN(c2ccnnc2)C1` [Example 456, 1-(pyridazin-4-yl)-N-(4-{[(3R)-1-(1,3-thiazol-4-ylcarbonyl)pyrrolidin-3-yl]oxy}phenyl)azetidine-3-carboxamide], for which inhibition was half-maximal at 39.5 nM (IC50). This IC50 is about 2.3-fold higher than that of the compound before.

In turn, `CC(C)CCC(=O)N1CC(Oc2ccc(NC(=O)C3CN(c4ccnnc4)C3)cc2)C1` [Example 263, N-(4-{[1-(4-methylpentanoyl)azetidin-3-yl]oxy}phenyl)-1-(pyridazin-4-yl)azetidine-3-carboxamide] returned an IC50 of 59.5 nM. This IC50 is about 1.5-fold higher than that of the compound before.

Turning to `Cc1ccc(C(=O)N2CCC(c3ccc(NC(=O)[C@H]4CCN(c5cccnn5)C4)cc3)CC2)cc1` [Example 631, (3S)-N-{4-[1-(4-methylbenzoyl)piperidin-4-yl]phenyl}-1-(pyridazin-3-yl)pyrrolidine-3-carboxamide], the IC50 was 9.58 nM.

`CC(C)(O)C(=O)N1CCC(c2ccc(NC(=O)C3CN(c4cccnc4C#N)C3)cc2)CC1` [Example 2, 1-(2-cyanopyridin-3-yl)-N-{4-[1-(2-hydroxy-2-methylpropanoyl)piperidin-4-yl]phenyl}azetidine-3-carboxamide]: the IC50 was over 10000 nM.

`O=C(Nc1ccc(O[C@@H]2CCN(C(=O)C3CCOC3)C2)cc1)C1CN(c2ccnnc2)C1` (stereo partly drawn) [Example 461, 1-(pyridazin-4-yl)-N-(4-{[(3R)-1-(tetrahydrofuran-3-ylcarbonyl)pyrrolidin-3-yl]oxy}phenyl)azetidine-3-carboxamide] returned an IC50 of 646 nM.

With `Cc1ccsc1C(=O)N1CCC(c2ccc(NC(=O)C3CN(c4cccnc4C)C3)cc2)CC1` [Example 171, 1-(2-methylpyridin-3-yl)-N-(4-{1-[(3-methylthiophen-2-yl)carbonyl]piperidin-4-yl}phenyl)azetidine-3-carboxamide], the IC50 came out at 68.1 nM.

As for `CCCCC(=O)N1CCC(c2ccc(NC(=O)C3CN(c4cccnc4)C3)cc2)CC1` [Example 98, N-[4-(1-pentanoylpiperidin-4-yl)phenyl]-1-(pyridin-3-yl)azetidine-3-carboxamide], the IC50 turned out to be 6.05 nM. This IC50 is about 11-fold lower than that of the compound before.

Regarding `O=C(Nc1ccc(O[C@@H]2CCN(C(=O)c3cc(F)cc(F)c3)C2)cc1)C1CN(c2ccnnc2)C1` [Example 474, N-(4-{[(3R)-1-(3,5-difluorobenzoyl)pyrrolidin-3-yl]oxy}phenyl)-1-(pyridazin-4-yl)azetidine-3-carboxamide], it took 68.5 nM to reach half-maximal inhibition (IC50).

`O=C(Nc1ccc(OC2CCN(C(=O)CC3CCOCC3)CC2)cc1)C1CN(c2cnccc2F)C1` [Example 6, 1-(4-fluoropyridin-3-yl)-N-(4-{[1-(tetrahydro-2H-pyran-4-ylacetyl)piperidin-4-yl]oxy}phenyl)azetidine-3-carboxamide] showed an IC50 of 67.7 nM. This IC50 and that of the compound before are within 1.5-fold of each other.

Turning to `CC(C)(C)n1cc(-c2ccc(NC(=O)[C@H]3CCN(c4cccnn4)C3)cc2)cn1` [Example 773, (3S)-N-[4-(1-tert-butyl-1H-pyrazol-4-yl)phenyl]-1-(pyridazin-3-yl)pyrrolidine-3-carboxamide], the IC50 was determined as 85.7 nM.

Consider `O=C(Nc1ccc(O[C@@H]2CCN(C(=O)c3ccccc3F)C2)cc1)C1CN(c2cccnn2)C1` [Example 514, N-(4-{[(3R)-1-(2-fluorobenzoyl)pyrrolidin-3-yl]oxy}phenyl)-1-(pyridazin-3-yl)azetidine-3-carboxamide], for which the concentration for half-maximal inhibition (IC50) is 0.32 nM.

`O=C(Nc1ccc(OC2CN(C(=O)C3CCC(F)(F)CC3)C2)cc1)C1CN(c2ccnnc2)C1` [Example 202, N-[4-({1-[(4,4-difluorocyclohexyl)carbonyl]azetidin-3-yl}oxy)phenyl]-1-(pyridazin-4-yl)azetidine-3-carboxamide] had an IC50 of 168 nM. This IC50 is about 520-fold higher than that of the compound before.

`Cc1ncccc1N1CC(C(=O)Nc2ccc(C3CCN(C(=O)c4cccs4)CC3)cc2)C1` [Example 187, 1-(2-methylpyridin-3-yl)-N-{4-[1-(thiophen-2-ylcarbonyl)piperidin-4-yl]phenyl}azetidine-3-carboxamide] gave an IC50 of 20.6 nM.

On to `CCC(C)CC(=O)N1CCC(c2ccc(NC(=O)C3CN(c4cccnc4)C3)cc2)CC1` (stereo not drawn) [Example 99, N-{4-[1-(3-methylpentanoyl)piperidin-4-yl]phenyl}-1-(pyridin-3-yl)azetidine-3-carboxamide], for which the IC50 came out at 5.72 nM. Against the preceding compound, the IC50 is about 3.6-fold lower.

As to `Cc1ccccc1C(=O)N1CC[C@@H](Oc2ccc(NC(=O)[C@H]3CCN(c4cccnn4)C3)cc2)C1` [Example 779, (3S)-N-(4-{[(3R)-1-(2-methylbenzoyl)pyrrolidin-3-yl]oxy}phenyl)-1-(pyridazin-3-yl)pyrrolidine-3-carboxamide], the IC50 was determined as 1.48 nM.

Regarding `O=C(Nc1ccc(C2CCN(C(=O)c3ccccc3F)CC2)cc1)C1CN(c2cccnn2)C1` [Example 428, N-{4-[1-(2-fluorobenzoyl)piperidin-4-yl]phenyl}-1-(pyridazin-3-yl)azetidine-3-carboxamide], inhibition was half-maximal at 0.19 nM (IC50).

Regarding `CC(C)(C)C(=O)N1CCC(c2ccc(NC(=O)C3CN(c4ccnnc4)C3)cc2)CC1` [Example 559, N-{4-[1-(2,2-dimethylpropanoyl)piperidin-4-yl]phenyl}-1-(pyridazin-4-yl)azetidine-3-carboxamide], the IC50 came to 1.33 nM. This IC50 is about 7-fold higher than that of the compound before.

`COc1ccc(C(=O)N2CCC(c3ccc(NC(=O)[C@H]4CCN(c5cccnn5)C4)cc3)CC2)cc1` [Example 705, (3S)-N-{4-[1-(4-methoxybenzoyl)piperidin-4-yl]phenyl}-1-(pyridazin-3-yl)pyrrolidine-3-carboxamide] yielded an IC50 of 20.2 nM.

Consider `O=C(Nc1ccc(C2CCN(C(=O)Cc3cc(F)cc(F)c3)CC2)cc1)C1CN(c2cccnn2)C1` [Example 384, N-(4-{1-[(3,5-difluorophenyl)acetyl]piperidin-4-yl}phenyl)-1-(pyridazin-3-yl)azetidine-3-carboxamide], for which half-maximal inhibition (IC50) was put at 8.27 nM.

As for `O=C(Nc1ccc(C2CCN(C(=O)c3cccc(F)c3F)CC2)cc1)[C@H]1CCN(c2cccnn2)C1` [Example 676, (3S)-N-{4-[1-(2,3-difluorobenzoyl)piperidin-4-yl]phenyl}-1-(pyridazin-3-yl)pyrrolidine-3-carboxamide], half-maximal inhibition (IC50) was put at 2.02 nM.

For `O=C(Nc1ccc(C2CCN(C(=O)COCc3ccccc3)CC2)cc1)C1CN(c2cccnn2)C1` [Example 409, N-(4-{1-[(benzyloxy)acetyl]piperidin-4-yl}phenyl)-1-(pyridazin-3-yl)azetidine-3-carboxamide], the IC50 amounted to 6.72 nM. Compared with the last compound, the IC50 is about 3.3-fold higher.

With `Cc1ccc(C(=O)N2CC[C@@H](Oc3ccc(NC(=O)C4CN(c5ccnnc5)C4)cc3)C2)s1` [Example 458, N-[4-({(3R)-1-[(5-methylthiophen-2-yl)carbonyl]pyrrolidin-3-yl}oxy)phenyl]-1-(pyridazin-4-yl)azetidine-3-carboxamide], the midpoint of inhibition, the IC50, lay at 64.4 nM.

`O=C(Nc1ccc(O[C@@H]2CCN(C(=O)c3ccccc3Cl)C2)cc1)C1CN(c2ccnnc2)C1` [Example 442, N-(4-{[(3R)-1-(2-chlorobenzoyl)pyrrolidin-3-yl]oxy}phenyl)-1-(pyridazin-4-yl)azetidine-3-carboxamide]: the IC50 worked out at 6.25 nM.

`O=C(Nc1ccc(C2CCN(C(=O)c3ccc(F)c(F)c3)CC2)cc1)C1CN(c2ccnnc2)C1` [Example 533, N-{4-[1-(3,4-difluorobenzoyl)piperidin-4-yl]phenyl}-1-(pyridazin-4-yl)azetidine-3-carboxamide] registered an IC50 of 24.6 nM.

On to `O=C(Nc1ccc(C2CCN(C(=O)CC3CC3)CC2)cc1)C1CN(c2ccnnc2)C1` [Example 527, N-{4-[1-(cyclopropylacetyl)piperidin-4-yl]phenyl}-1-(pyridazin-4-yl)azetidine-3-carboxamide], for which inhibition was half-maximal at 7.78 nM (IC50).

In turn, `O=C(Nc1ccc(C2CCN(C(=O)CC3CCOCC3)CC2)cc1)[C@H]1CCN(c2cccnn2)C1` [Example 312, (3S)-1-(pyridazin-3-yl)-N-{4-[1-(tetrahydro-2H-pyran-4-ylacetyl)piperidin-4-yl]phenyl}pyrrolidine-3-carboxamide] gave an IC50 of 21.7 nM.

In turn, `O=C(Nc1ccc(O[C@@H]2CCN(C(=O)C3CCOCC3)C2)cc1)C1CN(c2ccnnc2)C1` [Example 446, 1-(pyridazin-4-yl)-N-(4-{[(3R)-1-(tetrahydro-2H-pyran-4-ylcarbonyl)pyrrolidin-3-yl]oxy}phenyl)azetidine-3-carboxamide] registered a 50% inhibitory concentration (IC50) of 108 nM. This IC50 lies about 5-fold higher than the previous one.

On to `O=C(N[C@H]1CCN(c2cccnn2)C1)c1ccc(C2CCN(C(=O)c3ccc(F)cc3)CC2)s1` [Example 755, 5-[1-(4-fluorobenzoyl)piperidin-4-yl]-N-[(3S)-1-(pyridazin-3-yl)pyrrolidin-3-yl]thiophene-2-carboxamide], for which half-maximal inhibition (IC50) was put at 190 nM.

Take `O=C(Nc1ccc(OC2CCN(C(=O)[C@@H]3CCCO3)CC2)cc1)C1CN(c2cccnc2)C1` [Example 33, 1-(pyridin-3-yl)-N-[4-({1-[(2S)-tetrahydrofuran-2-ylcarbonyl]piperidin-4-yl}oxy)phenyl]azetidine-3-carboxamide]: the midpoint of inhibition, the IC50, lay at 3.66 nM.

`O=C(Nc1ccc(C2CCN(C(=O)c3ccco3)CC2)cc1)C1CN(c2cccnc2)C1` [Example 129, N-{4-[1-(furan-2-ylcarbonyl)piperidin-4-yl]phenyl}-1-(pyridin-3-yl)azetidine-3-carboxamide] gave an IC50 of 0.16 nM.
